Source: ChEMBL document CHEMBL3228000, “Absolute configuration of glycerol derivatives. 7. Enantiomers of 2-[[[2-(2,6-dimethoxyphenoxy)ethyl]amino]methyl]-1,4-benzodioxane (WB-4101), a potent competitive alpha-adrenergic antagonist” (J Med Chem, 1979)

Legend:
[1] = molecular target: Adrenergic receptor alpha; experiment: Antagonist at postsynaptic alpha-adrenergic receptor in rat vas deferens; type: tissue-based
[2] = Competitive antagonist at alpha-adrenergic receptor in New Zealand rabbit aorta assessed as methoxamine-induced contraction after 45 mins; type: tissue-based, Oryctolagus cuniculus

pA2 [1] | Structure (SMILES) | pA2 [2]
9.8 | COc1cccc(OC)c1OCCNCC1COc2ccccc2O1 (racemic) | 8.83
 | COc1cccc(OC)c1OCCNC[C@H]1COc2ccccc2O1.Cl | 9.02
 | COc1cccc(OC)c1OCCNC[C@@H]1COc2ccccc2O1.Cl | 7.35
